# Key:
# [1] = target: T1, Prostaglandin G/H synthase 2 (Homo sapiens, UniProt P35354); experiment: In vitro inhibitory concentration against prostaglandin G/H synthase 2 in microsomal enzyme assay
# T1 sequence (P35354 whole entry): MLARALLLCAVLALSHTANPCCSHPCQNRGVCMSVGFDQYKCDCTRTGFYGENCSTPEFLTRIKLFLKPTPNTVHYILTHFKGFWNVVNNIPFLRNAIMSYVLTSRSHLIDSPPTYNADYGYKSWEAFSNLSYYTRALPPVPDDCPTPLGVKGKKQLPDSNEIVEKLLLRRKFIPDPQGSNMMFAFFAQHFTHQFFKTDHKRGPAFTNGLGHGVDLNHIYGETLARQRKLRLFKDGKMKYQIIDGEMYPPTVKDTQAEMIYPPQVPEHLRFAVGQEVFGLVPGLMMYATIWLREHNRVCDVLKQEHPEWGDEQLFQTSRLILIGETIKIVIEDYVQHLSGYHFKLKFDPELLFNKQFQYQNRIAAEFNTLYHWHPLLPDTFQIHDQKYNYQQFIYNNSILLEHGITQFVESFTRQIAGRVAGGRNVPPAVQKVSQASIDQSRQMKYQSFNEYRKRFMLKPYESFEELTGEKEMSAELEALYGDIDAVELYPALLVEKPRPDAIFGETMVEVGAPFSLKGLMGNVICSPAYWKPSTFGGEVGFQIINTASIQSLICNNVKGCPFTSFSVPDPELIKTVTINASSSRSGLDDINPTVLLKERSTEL
# [2] = target: T2, Prostaglandin G/H synthase 2 (Homo sapiens) (UniProt P35354); experiment: In vitro percent inhibition of prostaglandin G/H synthase 2 at 100 uM in microsomal enzyme assay
# T2 sequence (whole entry): T1 sequence (P35354 whole entry)
smiles,measurement,setting,value
CS(=O)(=O)c1ccc(C2=C(c3ccccc3)S(=O)OC2)cc1 (configuration not stated),IC50,[1],> 100 µM
same,inhibition,[2],13%

# — ChEMBL document CHEMBL1143529, “A general carbometalation, three component coupling strategy for the synthesis of alpha,beta-unsaturated gamma-sultines including thio-rofecoxib, a selective COX-2 inhibitor” (Bioorg Med Chem Lett, 2005)
